Assay results: article PMC6348446 (Journal of Medicinal Chemistry, 2018)
Converted amounts (≈) assume the structure as drawn. Read-outs that look alike come from different tables or passages of the source. Values belong to the compound of their own block, whether it stands above or below them.

What was measured:
BRD9 = biological target: T1, BRD9 (Homo sapiens, UniProt Q9H8M2); experiment: Western blot of BRD9 levels in HeLa cells after compound treatment; assay type: cell-based; settings: 1 μM compound; for remaining activity at 1 µM: Table 2, % of total protein remaining relative to 0.1% DMSO vehicle, HeLa cell lysates; for BRD9 degradation: HeLa cells
T1 construct: Western blot analysis of BRD9 and BRD7 levels after treatment of HeLa cells; endogenous in cells; host or cells: HeLa
T1 sequence (Q9H8M2 1-597): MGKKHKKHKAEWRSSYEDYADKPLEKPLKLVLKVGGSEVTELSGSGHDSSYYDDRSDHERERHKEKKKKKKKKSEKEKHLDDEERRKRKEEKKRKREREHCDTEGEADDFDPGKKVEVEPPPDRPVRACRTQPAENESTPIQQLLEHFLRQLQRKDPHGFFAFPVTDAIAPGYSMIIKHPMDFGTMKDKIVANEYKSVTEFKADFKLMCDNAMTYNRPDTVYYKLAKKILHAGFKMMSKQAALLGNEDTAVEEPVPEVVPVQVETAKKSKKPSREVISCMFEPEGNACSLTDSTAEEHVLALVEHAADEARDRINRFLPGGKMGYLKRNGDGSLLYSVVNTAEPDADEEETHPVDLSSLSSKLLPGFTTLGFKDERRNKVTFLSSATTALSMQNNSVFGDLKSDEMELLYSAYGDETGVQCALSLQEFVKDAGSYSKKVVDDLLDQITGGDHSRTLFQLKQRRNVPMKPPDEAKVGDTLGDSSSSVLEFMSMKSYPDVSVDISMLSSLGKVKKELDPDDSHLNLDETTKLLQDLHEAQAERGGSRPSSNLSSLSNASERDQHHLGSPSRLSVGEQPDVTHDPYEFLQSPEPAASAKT

Plasma stability, mouse = assay type: in vitro ADME; settings: 10 µM compound, 37 °C; for half-life at 10 µM: mouse, plasma, pH 7.4, read-out: Plasma stability T 1/2, Mouse
Description: Test compound (10 µM) was incubated in pre-warmed plasma at 37 ᵒC (that is buffered to pH 7.4 in ratio of 70:30 plasma to buffer). Immediately, at time zero, then at 30, 60, 120, and 180 min, a 50 µL aliquot of the incubation mixture was removed and mixed with 200 µL acetonitrile containing Donepezil as the internal standard (50 ng/ml) to stop the reaction. The samples were centrifuged to sediment the precipitated protein and the plates then sealed prior to UPLC-MS/MS analysis using a Xevo TQ-S Micro (Waters Corporation, USA).
XLfit (IDBS, UK) was used to calculate the exponential decay and consequently the rate constant (k) from the ratio of peak area of test compound to internal standard at each time point. The half-life was calculated for each test compound from the rate by using the […]
Parallel Artificial Membrane Permeability Assay (PAMPA)
PAMPA was performed using a 96-well pre-coated BD Gentest™ PAMPA plate (BD Biosciences, U.K.). Each well was divided into two chambers; donor and acceptor, separated by a lipid-oil-lipid tri-layer constructed in a porous filter. The effective permeability, Pe, of the compound was measured at pH 7.4. Stock solutions (5 mM) of the compound were prepared in DMSO. The compound was then further diluted to 10 µM in phosphate buffered […]
saline at pH 7.4. […] The compound […]
dissolved in phosphate buffered saline was then added to the donor side of the membrane and phosphate buffered saline without compound was added to the acceptor side. The PAMPA plate was left at room temperature for 5 h. After which time, an aliquot (100 µL) was then

[1] = Aqueous kinetic solubility by laser nephelometry; assay type: physicochemical; settings: for solubility kinetic: MilliQ water with 2.5% DMSO
Description: The aqueous solubility of the test compounds was measured using laser nephelometry.
Compounds were subject to serial dilution from 10 mM to 0.5 mM in DMSO. An aliquot was then mixed with MilliQ water to obtain an aqueous dilution plate with a final concentration range of 250 – 12 µM, with a final DMSO concentration of 2.5%. Triplicate aliquots were transferred to a flat-bottomed polystyrene plate which was immediately read on the NEPHELOstar (BMG Lab Technologies). The amount of laser scatter caused by insoluble particulates (relative nephelometry units, RNU) was plotted against compound concentration using a segmental regression fit, with the point of inflection being quoted as the compounds

remaining activity at 1 µM (BRD9; 4 h, read-out: BRD9 4 h (%)): 14%
SMILES: COc1cc(-c2cn(C)c(=O)c3cnccc23)cc(OC)c1CN1CCN(CCOCCOCCOc2cc(-c3scnc3C)ccc2CNC(=O)[C@@H]2C[C@@H](O)CN2C(=O)[C@@H](NC(=O)C2(F)CC2)C(C)(C)C)CC1 [Compound 26, (2S,4R)-N-(2-(2-(2-(2-(4-(2,6-Dimethoxy-4-(2-methyl-1-oxo-1,2-dihydro-2,7-naphthyridin-4-yl)benzyl)piperazin-1-yl)ethoxy)ethoxy)ethoxy)-4-(4-methylthiazol-5-yl)benzyl)-1-((S)-2-(1-fluorocyclopropane-1-carboxamido)-3,3-dimethylbutanoyl)-4-hydroxypyrrolidine-2-carboxamide]

remaining activity at 1 µM (BRD9; 16 h, read-out: BRD9 16 h (%)): 89%
BRD9 degradation (BRD9; 4 h): at most 20%
BRD9 degradation (BRD9; 16 h): ≤ 30%
SMILES: COc1cc(-c2cn(C)c(=O)c3cnccc23)cc(OC)c1CN1CCN(CCOCCOCC(=O)N[C@H](C(=O)N2C[C@H](O)C[C@H]2C(=O)NCc2ccc(-c3scnc3C)cc2)C(C)(C)C)CC1 [Compound 5, (2S,4R)-1-((S)-2-(2-(2-(2-(4-(2,6-Dimethoxy-4-(2-methyl-1-oxo-1,2-dihydro-2,7-naphthyridin-4-yl)benzyl)piperazin-1-yl)ethoxy)ethoxy)acetamido)-3,3-dimethylbutanoyl)-4-hydroxy-N-(4-(4-methylthiazol-5-yl)benzyl)pyrrolidine-2-carboxamide]

Plasma stability T 1/2, Mouse (Plasma stability, mouse): high stabilities
half-life at 10 µM (Plasma stability, mouse): > 3 h
Aqueous Solubility (Kinetic) ([1]; 2.5% DMSO, listed as VZ185): ~100 µM
solubility kinetic [1]: 85 µM (≈ 84.6 µg/mL)
SMILES: COc1cc(-c2cn(C)c(=O)c3cnccc23)cc(OC)c1CN1CCN(CCCCCOc2cc(-c3scnc3C)ccc2CNC(=O)[C@@H]2C[C@@H](O)CN2C(=O)[C@@H](NC(=O)C2(F)CC2)C(C)(C)C)CC1 [Compound 51, (2S,4R)-N-(2-((5-(4-(2,6-Dimethoxy-4-(2-methyl-1-oxo-1,2-dihydro-2,7-naphthyridin-4-yl)benzyl)piperazin-1-yl)pentyl)oxy)-4-(4-methylthiazol-5-yl)benzyl)-1-((S)-2-(1-fluorocyclopropane-1-carboxamido)-3,3-dimethylbutanoyl)-4-hydroxypyrrolidine-2-carboxamide]

half-life at 10 µM (Plasma stability, mouse): > 3 h
solubility kinetic [1]: 79 µM (≈ 78.6 µg/mL)
SMILES: COc1cc(-c2cn(C)c(=O)c3cnccc23)cc(OC)c1CN1CCN(CCCCCOc2cc(-c3scnc3C)ccc2CNC(=O)[C@@H]2C[C@H](O)CN2C(=O)[C@@H](NC(=O)C2(F)CC2)C(C)(C)C)CC1 [cisVZ185]
